Laboratory results published in US20150105252A1, “SUBSTITUTED PYRAZOLES AS HERBICIDES” (E I DU PONT DE NEMOURS AND COMPANY, priority 2013, published 2015).

Key:
blackgrass = assay: Test C preemergence; format: in vivo, Alopecurus myosuroides; settings: preemergence
Procedure, shortened: (§1)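 Visual rating, 0–100 scale (0 no effect, 100 complete control), vs untreated controls after 13–15 d greenhouse. Pre: seeds in loam/sand, treated at sowing. Post: plants in peat-based mix, 1- to 4-leaf (2–18 cm). Solvent + surfactant formulation, non-phytotoxic.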

johnsongrass = assay: Test C preemergence; format: in vivo, Sorghum halepense
Procedure, shortened: as §1

barnyardgrass [1] = assay: Test A postemergence; format: in vivo, Echinochloa crus-galli
Procedure, shortened: (§2)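 Both timings tested concurrently in loam/sand soil: preemergence by directed soil spray, postemergence on plants of 2–10 cm at the one- to two-leaf stage. Greenhouse holding period was approximately 10 days before visual injury assessment (0–100, 0 = no effect).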

pigweed = assay: Test C postemergence; format: in vivo, Amaranthus retroflexus; settings: for Pigweed plant response rating / Plant response rating, Pigweed: postemergence; for Pigweed plant response rating: 62 g ai/ha, scale 0 to 100
Procedure, shortened: as §1

barnyardgrass [2] = assay: Test C preemergence; format: in vivo, Echinochloa crus-galli
Procedure, shortened: as §1

chickweed = assay: Test C postemergence; format: in vivo, Stellaria media; settings: for Plant response rating (scale of 0 to 100 where 0 is no effect and 100 is complete control), Chickweed: 31 g ai/ha, visually evaluated after 13 to 15 days; for Chickweed plant response rating / Plant response rating, Chickweed: postemergence; for Chickweed plant response rating: 62 g ai/ha, scale 0 to 100
Procedure, shortened: as §1

corn = assay: Test C postemergence; format: in vivo, Zea mays; settings: for Plant response rating (scale of 0 to 100 where 0 is no effect and 100 is complete control), Corn: 31 g ai/ha, visually evaluated after 13 to 15 days; for Corn plant response rating / Plant response rating, Corn: postemergence; for Corn plant response rating: 62 g ai/ha, scale 0 to 100
Procedure, shortened: as §1

ducksalad = assay: Test B flood; format: in vivo, Heteranthera limosa; settings: 250 g ai/ha, visual rating on 0 to 100 scale (0 no effect, 100 complete control), 13 to 15 days
Procedure, shortened: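 2-leaf plants; pots flooded 3 cm over soil; compound added to paddy water, depth kept constant. Greenhouse 13–15 d. Visual rating vs controls, 0–100 scale (100 = complete control); dash = no result.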

crabgrass, large = assay: Test C postemergence; format: in vivo, Digitaria sanguinalis; settings: for Plant response rating (scale of 0 to 100 where 0 is no effect and 100 is complete control), Crabgrass, Large: 31 g ai/ha, visually evaluated after 13 to 15 days; for Crabgrass, Large plant response rating / Plant response rating, Crabgrass, Large: postemergence; for Crabgrass, Large plant response rating: 62 g ai/ha, scale 0 to 100
Procedure, shortened: as §1

morningglory = assay: Test A preemergence; format: in vivo, Ipomoea spp.
Procedure, shortened: as §2

soybean = assay: Test C preemergence; format: in vivo, Glycine max
Procedure, shortened: as §1

ryegrass, Italian = assay: Test C postemergence; format: in vivo, Lolium multiflorum
Procedure, shortened: as §1

[3] = preemergence, 31 g ai/ha, visual rating, scale 0 to 100 (0 no effect, 100 complete control), 13 to 15 days
[4] = preemergence, 62 g ai/ha, scale 0 to 100 (0 no effect, 100 complete control), 13 to 15 days
[5] = preemergence, 125 g ai/ha, 13 to 15 days, scale 0 to 100, 0 = no effect, 100 = complete control
[6] = preemergence, 250 g ai/ha, scale 0 to 100, 0 is no effect, 100 is complete control
[7] = 250 g ai/ha, scale 0 to 100 (0 no effect, 100 complete control)
[8] = 125 g ai/ha, scale 0 to 100, 0 no effect, 100 complete control
[9] = postemergence, 125 g ai/ha, scale 0 to 100, 0 no effect, 100 complete control
[10] = Preemergence, 16 g ai/ha, scale 0 to 100
[11] = preemergence, 31 g ai/ha, scale 0 to 100 (0 no effect, 100 complete control), 13 to 15 days
[12] = preemergence, 125 g ai/ha, scale 0 to 100, 0 is no effect, 100 is complete control
[13] = Postemergence, 31 g ai/ha, visually evaluated after 13 to 15 days
[14] = preemergence, 62 g ai/ha, 13 to 15 days, scale 0 to 100, 0 = no effect, 100 = complete control

CCCc1cc(C(=O)NC2CC2)nn1Cc1cc(C(F)(F)F)nn1C [Compound 202]
Blackgrass plant response rating (blackgrass; 31 g ai/ha, visual rating, scale 0 to 100 (0 no effect, 100 complete control), 13 to 15 days): 10 | Blackgrass plant response rating (blackgrass; 62 g ai/ha, scale 0 to 100 (0 no effect, 100 complete control), 13 to 15 days): 85 | Plant response rating, Blackgrass (blackgrass; 125 g ai/ha, 13 to 15 days, scale 0 to 100, 0 = no effect, 100 = complete control): 90 | Blackgrass plant response rating (blackgrass; 250 g ai/ha, scale 0 to 100, 0 is no effect, 100 is complete control): 90 | Johnsongrass plant response rating (johnsongrass; [3]): 50 | Johnsongrass plant response rating (johnsongrass; [4]): 85 | Plant response rating, Johnsongrass (johnsongrass; [5]): 100 | Johnsongrass plant response rating (johnsongrass; [6]): 100 | Barnyardgrass plant response rating (barnyardgrass [1]; Postemergence, 500 g ai/ha, 0 to 100 scale (0 no effect, 100 complete control)): 100 | Barnyardgrass plant response rating (barnyardgrass [1]; postemergence, 125 g ai/ha, about 10 days, visual rating on 0 to 100 scale (0 no effect, 100 complete control)): 90 | Pigweed plant response rating (pigweed): 80 | Plant response rating, Pigweed (pigweed; [7]): 95 | Plant response rating, Pigweed (pigweed; [8]): 90 | Barnyardgrass plant response rating (barnyardgrass [2]; [3]): 95 | Barnyardgrass plant response rating (barnyardgrass [2]; [4]): 100 | Plant response rating, Barnyardgrass (barnyardgrass [2]; [5]): 100 | Barnyardgrass plant response rating (barnyardgrass [2]; [6]): 100 | Plant response rating (scale of 0 to 100 where 0 is no effect and 100 is complete control), Chickweed (chickweed; Postemergence): 75 | Chickweed plant response rating (chickweed): 80 | Plant response rating, Chickweed (chickweed; [7]): 85 | Plant response rating, Chickweed (chickweed; [8]): 80 | Plant response rating (scale of 0 to 100 where 0 is no effect and 100 is complete control), Corn (corn; Postemergence): 5 | Corn plant response rating (corn): 10 | Plant response rating, Corn (corn; [7]): 25 | Plant response rating, Corn (corn; [8]): 15 | Plant response rating, Ducksalad (ducksalad): 95 | Plant response rating (scale of 0 to 100 where 0 is no effect and 100 is complete control), Crabgrass, Large (crabgrass, large; Postemergence): 5 | Crabgrass, Large plant response rating (crabgrass, large): 10 | Plant response rating, Crabgrass, Large (crabgrass, large; [7]): 70 | Plant response rating, Crabgrass, Large (crabgrass, large; [8]): 25 | Morningglory plant response rating (0 to 100 scale) (morningglory; preemergence, 125 g ai/ha, visual injury approx. 10 days after treatment): 100 | Morningglory plant response rating (morningglory; preemergence, 500 g ai/ha, visual injury after approx. 10 days, 0 to 100 scale (0 no effect, 100 complete control)): 100 | Soybean plant response rating (soybean; [3]): 65 | Soybean plant response rating (soybean; [4]): 70 | Plant response rating, Soybean (soybean; [5]): 85 | Soybean plant response rating (soybean; [6]): 98 | Plant response rating, Ryegrass, Italian (ryegrass, Italian; postemergence, 250 g ai/ha, scale 0 to 100 (0 no effect, 100 complete control)): 5 | Plant response rating, Ryegrass, Italian (ryegrass, Italian; [9]): 5

CCONC(=O)c1cc(CC)n(Cc2ccnc(C(F)(F)F)c2)n1 [Compound 77]
Plant response rating, Johnsongrass (johnsongrass; [10]): 10 | Johnsongrass plant response rating (johnsongrass; [11]): 45 | Johnsongrass plant response rating (johnsongrass; [12]): 70 | Barnyardgrass plant response rating (barnyardgrass [1]; Postemergence, 125 g ai/ha, 0 to 100 scale, 0 no effect, 100 complete control): 50 | Barnyardgrass plant response rating (barnyardgrass [1]; Postemergence, 500 g ai/ha, visual rating after approx. 10 days, 0 to 100 scale (0 no effect, 100 complete control)): 100 | Plant response rating (scale of 0 to 100), Pigweed (pigweed; Postemergence, 16 g ai/ha): 25 | Plant response rating (scale of 0 to 100 where 0 is no effect and 100 is complete control), Pigweed (pigweed; [13]): 50 | Pigweed plant response rating (pigweed): 55 | Plant response rating, Pigweed (pigweed; [8]): 60 | Plant response rating, Barnyardgrass (barnyardgrass [2]; [10]): 10 | Barnyardgrass plant response rating (barnyardgrass [2]; [11]): 20 | Plant response rating, Barnyardgrass (barnyardgrass [2]; [14]): 75 | Barnyardgrass plant response rating (barnyardgrass [2]; [12]): 100 | Plant response rating (scale of 0 to 100), Chickweed (chickweed; Postemergence, 16 g ai/ha): 50 | Plant response rating (scale of 0 to 100 where 0 is no effect and 100 is complete control), Chickweed (chickweed; Postemergence): 50 | Chickweed plant response rating (chickweed): 55 | Plant response rating, Chickweed (chickweed; [8]): 60 | Plant response rating (scale of 0 to 100), Corn (corn; Postemergence, 16 g ai/ha): 0 | Plant response rating (scale of 0 to 100 where 0 is no effect and 100 is complete control), Corn (corn; Postemergence): 0 | Corn plant response rating (corn): 5 | Plant response rating, Corn (corn; [8]): 10 | Plant response rating, Ducksalad (ducksalad): 80 | Plant response rating (scale of 0 to 100), Crabgrass, Large (crabgrass, large; Postemergence, 16 g ai/ha): 5 | Plant response rating (scale of 0 to 100 where 0 is no effect and 100 is complete control), Crabgrass, Large (crabgrass, large; Postemergence): 10 | Crabgrass, Large plant response rating (crabgrass, large): 10 | Plant response rating, Crabgrass, Large (crabgrass, large; [8]): 20 | Morningglory plant response rating (morningglory; Preemergence, 500 g ai/ha, 0 to 100 scale, 0 no effect, 100 complete control): 50 | Morningglory plant response rating (morningglory; preemergence, 125 g ai/ha, visual injury, 0 to 100 scale, approx. 10 days): 20 | Plant response rating, Soybean (soybean; [10]): 0 | Soybean plant response rating (soybean; [11]): 10 | Plant response rating, Soybean (soybean; [14]): 20 | Soybean plant response rating (soybean; [12]): 50 | Plant response rating (scale of 0 to 100), Ryegrass, Italian (ryegrass, Italian; Postemergence, 16 g ai/ha): 0 | Plant response rating (scale of 0 to 100 where 0 is no effect and 100 is complete control), Ryegrass, Italian (ryegrass, Italian; [13]): 5 | Ryegrass, Italian plant response rating (ryegrass, Italian; postemergence, 62 g ai/ha, scale 0 to 100): 5 | Plant response rating, Ryegrass, Italian (ryegrass, Italian; [9]): 5
